Results as given in patent US9593305B2, “Differentiation of pluripotent stem cells” (Janssen Biotech, Inc., priority 2008, dated 2017).

Tested on: H1 human embryonic stem cells
Test: Compounds and growth factors with low dose activin A (Example 9, Table 9)
Format: cell-based
Procedure: Clusters of H1 human embryonic stem cells were grown on reduced growth factor […]™ (Invitrogen; Cat #356231)-coated tissue culture plastic. Cells were passaged using collagenase (Invitrogen; Cat #17104-019) treatment and gentle scraping, washed to remove residual enzyme, and plated with even dispersal at a ratio of 1:1 (surface area) on reduced growth factor […]™-coated 96-well black plates (Packard ViewPlates; PerkinElmer; Cat #6005182) using volumes of 100 μl/well. Cells were allowed to attach as clusters and then recover log phase growth over a 1 to 3 day period, feeding daily with MEF conditioned medium supplemented with 8 ng/ml bFGF (R&D Systems; Cat #233-FB). Plates were maintained at 37° C., 5% CO2 in a humidified box throughout the duration of assay.
Stocks of growth factors purchased from R&D Systems were EGF (Cat #236-EG), FGF4 (Cat #235-F4), PDGF-A (Cat #221-AA), PDGF-D (Cat #1159-SB), PDGF-A/B (Cat #222-AB), VEGF (Cat #293-VE), and GDF-8 (Cat #788-08). Activin A was purchased from PeproTech (Cat #). Muscimol was purchased from Tocris (Cat #0289). All growth factors were solubilized in PBS with 0.1% BSA (Sigma; Cat #A7888) and stored frozen at −80° C. Muscimol was solubilized in 100% DMSO (Sigma; Cat #D2650) and stored frozen at −80° C. The compounds were available as 5 mM stocks in 96-well plate format, solubilized in 100% DMSO and stored at −80° C. The compounds were further diluted to an intermediate concentration of 0.2 mM in 50 mM HEPES (Invitrogen; Cat #15630-080), 20% DMSO and stored at 4° C. All growth factors and inhibitors were prepared in a deep well, 96-well polypropylene plate, diluted to 5× intermediate stocks in DMEM:F12 base medium at the beginning of assay and stored at 4° C.
A secondary screening assay was conducted, testing in triplicate and feeding on alternate days over the four-day assay timeframe. Assays were initiated by aspirating culture medium from each well followed by three washes in PBS to remove residual growth factors and serum. Test volumes of 80 μl per well were added back containing DMEM:F12 base medium (Invitrogen; Cat #11330-032) supplemented with 0.625% FCS (HyClone; Cat #SH30070.03), 25 ng/ml Wnt3a (R&D Systems), 12.5 ng/ml activin A, and 3.125 μM compound plus 20 μl 5× stock of growth factor or small molecule to yield a final concentration of 0.5% FCS, 20 ng/ml Wnt3a, 10 ng/ml activin A, and 2.5 μM compound. All remaining growth factors were tested at a final assay concentration of 50 ng/ml (EGF, FGF4, PDGF-A, PDGF-A/B, VEGF), with the exception of GDF-8 used at 25 ng/ml. Final assay concentration of muscimol was 20 μM. Positive control wells (100 μl/well) contained the same base medium supplemented with 0.5% FCS, 20 ng/ml Wnt3a and 10 ng/ml (low dose) or 100 ng/ml (high dose) activin A. Negative control wells (100 μl/well) contained the same base medium with 0.5% FCS and 20 ng/ml Wnt3a, omitting activin A.
Positive control wells (100 μl/well) contained the same base medium supplemented with 2% FCS and 10 ng/ml or 100 ng/ml activin A, omitting Wnt3a. Negative control wells (100 μl/well) contained the same base medium with 2% FCS, omitting both activin A and Wnt3a.
At the conclusion of four-days of culture, assay plates were washed twice with PBS, fixed with 4% paraformaldehyde (Alexis Biochemical; Cat #ALX-350-011) at room temperature for 20 minutes, then washed three times with PBS and permeabilized with 0.5% Triton X-100 (Sigma; Cat #T8760-2) for 20 minutes at room temperature. Cells were washed again three times with PBS and blocked with 4% chicken serum (Invitrogen; Cat #16110082) in PBS for 30 minutes at room temperature. Primary antibody (goat anti-human SOX17; R&D Systems; cat #AF1924) was diluted 1:100 in 4% chicken serum and added to each well for one hour at room temperature. […]

[1] = 10 ng/ml AA + compound + EGF + FGF4 + PDGF-A + Muscimol + Wnt3a
[2] = 10 ng/ml AA + compound + EGF + FGF4 + PDGF-A + VEGF + PDGF-D + Muscimol + GDF8 + Wnt3a
[3] = 10 ng/ml AA + compound + EGF + FGF4 + PDGF-AB + VEGF + Wnt3a
[4] = 10 ng/ml AA + compound + EGF + FGF4 + PDGF-AB + Wnt3a
[5] = 10 ng/ml AA + compound + EGF + FGF4 + Wnt3a
[6] = 10 ng/ml AA + compound + EGF + Wnt3a
[7] = 10 ng/ml AA + compound + FGF4 + Wnt3a

Row | SMILES | Cell Number, % of positive control [1] | Cell Number, Average Total Cell Number [1] | Sox17 Expression, % of positive control [1] | Sox17 Expression, Average Total Intensity [1] | Cell Number, % of positive control [2] | Cell Number, Average Total Cell Number [2] | Sox17 Expression, % of positive control [2] | Sox17 Expression, Average Total Intensity [2] | Cell Number, % of positive control [3] | Cell Number, Average Total Cell Number [3] | Sox17 Expression, % of positive control [3] | Sox17 Expression, Average Total Intensity [3] | Cell Number, % of positive control [4] | Cell Number, Average Total Cell Number [4] | Sox17 Expression, % of positive control [4] | Sox17 Expression, Average Total Intensity [4] | Cell Number, % of positive control [5] | Cell Number, Average Total Cell Number [5] | Sox17 Expression, % of positive control [5] | Sox17 Expression, Average Total Intensity [5] | further results
1 | O=C1NCCCc2cncc(c2)-c2ncnc(n2)Nc2cc(Cl)cc(c2)CN2CCCC1C2 (stereo not drawn) [Compound 37, 10-Chloro-3,5,7,14,20,26,31-heptaazapentacyclo[22.3.1.1˜2,6˜0.1˜8,12˜0.1˜14,18˜]hentriaconta-1(28), 2(31), 3,5,8(30), 9,11,24,26-nonaen-19-one] | 59.34 % of positive control | 4540 | 0.83 % of positive control | 9.23E+05 | 74.65 % of positive control | 5711 | 10.82 % of positive control | 1.21E+07 | 62.31 % of positive control | 4767 | −0.46 % of positive control | −5.16E+05 | 55.20 % of positive control | 4223 | −0.55 % of positive control | −6.15E+05 | 45.77 % of positive control | 3501 | 0.50 % of positive control | 5.60E+05 | Cell Number, % of positive control [6]: 18.70 % of positive control; Cell Number, Average Total Cell Number [6]: 1431; Sox17 Expression, % of positive control [6]: −2.47 % of positive control; Sox17 Expression, Average Total Intensity [6]: −2.75E+06; Cell Number, % of positive control [7]: 51.37 % of positive control; Cell Number, Average Total Cell Number [7]: 3930; Sox17 Expression, % of positive control [7]: −1.69 % of positive control; Sox17 Expression, Average Total Intensity [7]: −1.88E+06; Cell Number, % of positive control (10 ng/ml AA + compound + Wnt3a): 10.34 % of positive control; Cell Number, Average Total Cell Number (10 ng/ml AA + compound + Wnt3a): 791; Sox17 Expression, % of positive control (10 ng/ml AA + compound + Wnt3a): −2.68 % of positive control; Sox17 Expression, Average Total Intensity (10 ng/ml AA + compound + Wnt3a): −2.99E+06
2 | O=C1CCN2CCN(CC2)Cc2cc(Cl)cc(c2)Nc2ncnc(n2)-c2cncc(c2)CCCN1 [Compound 34, 5-Chloro-1,8,10,12,16,22,26,32-octaazapentacyclo[24.2.2.1˜3.7˜0.1˜9,13˜0.1˜14.18˜]tritriaconta-3(33), 4,6,9(32), 10,12,14(31), 15,17-nonaen-23-one] | 233.85 % of positive control | 17890 | 258.30 % of positive control | 2.88E+08 | 240.02 % of positive control | 18362 | 309.74 % of positive control | 3.45E+08 | 203.58 % of positive control | 15574 | 232.70 % of positive control | 2.59E+08 | 233.65 % of positive control | 17875 | 241.07 % of positive control | 2.68E+08 | 185.07 % of positive control | 14158 | 215.35 % of positive control | 2.40E+08 | Cell Number, % of positive control [6]: 189.89 % of positive control; Cell Number, Average Total Cell Number [6]: 14527; Sox17 Expression, % of positive control [6]: 204.84 % of positive control; Sox17 Expression, Average Total Intensity [6]: 2.28E+08; Cell Number, % of positive control [7]: 174.15 % of positive control; Cell Number, Average Total Cell Number [7]: 13323; Sox17 Expression, % of positive control [7]: 196.86 % of positive control; Sox17 Expression, Average Total Intensity [7]: 2.19E+08; Cell Number, % of positive control (10 ng/ml AA + compound + Wnt3a): 46.91 % of positive control; Cell Number, Average Total Cell Number (10 ng/ml AA + compound + Wnt3a): 3589; Sox17 Expression, % of positive control (10 ng/ml AA + compound + Wnt3a): 63.08 % of positive control; Sox17 Expression, Average Total Intensity (10 ng/ml AA + compound + Wnt3a): 7.02E+07
3 | CCN1CCCc2cccc(c2)-c2ncnc(n2)Nc2cccc(c2)CCNC(=O)C1 [Compound 29, 18-Ethyl-3,5,7,15,18,28-hexaazatetracyclo[20.3.1.1˜2,6˜0.1˜8,12˜]octacosa-1(26), 2(28), 3,5,8(27), 9,11,22,24-nonaen-16-one] | 76.26 % of positive control | 4676 | 21.11 % of positive control | 2.41E+07 | 44.63 % of positive control | 2737 | 21.10 % of positive control | 2.41E+07 | 37.23 % of positive control | 2283 | 4.88 % of positive control | 5.59E+06 | 64.65 % of positive control | 3964 | 19.89 % of positive control | 2.27E+07 | 28.31 % of positive control | 1736 | 1.73 % of positive control | 1.98E+06 | Cell Number, % of positive control [6]: 5.96 % of positive control; Cell Number, Average Total Cell Number [6]: 365; Sox17 Expression, % of positive control [6]: −4.25 % of positive control; Sox17 Expression, Average Total Intensity [6]: −4.86E+06; Cell Number, % of positive control [7]: 34.89 % of positive control; Cell Number, Average Total Cell Number [7]: 2139; Sox17 Expression, % of positive control [7]: 6.10 % of positive control; Sox17 Expression, Average Total Intensity [7]: 6.98E+06; Cell Number, % of positive control (10 ng/ml AA + compound + Wnt3a): 34.09 % of positive control; Cell Number, Average Total Cell Number (10 ng/ml AA + compound + Wnt3a): 2090; Sox17 Expression, % of positive control (10 ng/ml AA + compound + Wnt3a): 4.28 % of positive control; Sox17 Expression, Average Total Intensity (10 ng/ml AA + compound + Wnt3a): 4.89E+06
